Source: paper PMC12143796, “Virtual screening of a random tripeptide library for easily prepared inhibitors of insect chitinolytic enzymes” (The Cell Surface, 2025)
Residues, ends and D or L forms follow the SMILES beside them.

What was measured:
Format in all cases: biochemical
[1] = target: T1, OfHex1 (Ostrinia furnacalis, UniProt Q06GJ0); experiment: fluorescence of released 4-methylumbelliferone; conditions: 10 μM substrate, 20 mM sodium phosphate pH 6.0, 30 °C, 30 min
T1 construct: PDB id is that of the docking structure
T1 sequence (Q06GJ0 23-594): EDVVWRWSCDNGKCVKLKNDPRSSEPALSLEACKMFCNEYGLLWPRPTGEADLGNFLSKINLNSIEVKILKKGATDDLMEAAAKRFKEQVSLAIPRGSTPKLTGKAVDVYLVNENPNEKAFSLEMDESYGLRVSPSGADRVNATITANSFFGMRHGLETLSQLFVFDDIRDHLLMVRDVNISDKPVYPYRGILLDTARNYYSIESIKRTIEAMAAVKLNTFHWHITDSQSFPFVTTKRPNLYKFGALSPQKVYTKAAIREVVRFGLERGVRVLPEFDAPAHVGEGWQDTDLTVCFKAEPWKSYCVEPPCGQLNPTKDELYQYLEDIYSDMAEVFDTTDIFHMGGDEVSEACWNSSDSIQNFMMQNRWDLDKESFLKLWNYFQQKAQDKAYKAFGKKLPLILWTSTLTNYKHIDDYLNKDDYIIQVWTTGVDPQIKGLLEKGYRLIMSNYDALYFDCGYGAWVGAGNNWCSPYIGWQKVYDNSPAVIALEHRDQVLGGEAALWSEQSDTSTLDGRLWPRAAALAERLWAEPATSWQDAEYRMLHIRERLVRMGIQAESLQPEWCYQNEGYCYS

[2] = target: T2, OfChtI (Ostrinia furnacalis, UniProt Q2V6H4); experiment: fluorescence assay of released 4-methylumbelliferone; conditions: read-out: % inhibition at 1 mM
T2 construct: PDB id is that of the docking structure
T2 sequence (Q2V6H4 19-407): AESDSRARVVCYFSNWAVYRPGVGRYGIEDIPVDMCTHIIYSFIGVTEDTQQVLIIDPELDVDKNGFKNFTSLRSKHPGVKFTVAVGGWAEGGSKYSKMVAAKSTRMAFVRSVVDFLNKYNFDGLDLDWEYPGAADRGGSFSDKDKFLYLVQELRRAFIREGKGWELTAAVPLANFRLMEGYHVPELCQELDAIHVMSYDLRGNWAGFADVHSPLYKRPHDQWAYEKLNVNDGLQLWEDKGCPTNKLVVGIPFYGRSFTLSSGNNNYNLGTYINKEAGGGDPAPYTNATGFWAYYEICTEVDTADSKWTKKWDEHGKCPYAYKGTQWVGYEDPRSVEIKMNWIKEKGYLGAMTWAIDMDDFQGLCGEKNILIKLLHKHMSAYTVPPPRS

[3] = target: T1, OfHex1; experiment: as above; conditions: read-out: % inhibition at 1 mM
[4] = target: T3, OfChi-h (Ostrinia furnacalis, UniProt Q4AE59); experiment: as above; conditions: read-out: % inhibition at 1 mM
T3 construct: PDB id is that of the docking structure
T3 sequence (Q4AE59 18-553): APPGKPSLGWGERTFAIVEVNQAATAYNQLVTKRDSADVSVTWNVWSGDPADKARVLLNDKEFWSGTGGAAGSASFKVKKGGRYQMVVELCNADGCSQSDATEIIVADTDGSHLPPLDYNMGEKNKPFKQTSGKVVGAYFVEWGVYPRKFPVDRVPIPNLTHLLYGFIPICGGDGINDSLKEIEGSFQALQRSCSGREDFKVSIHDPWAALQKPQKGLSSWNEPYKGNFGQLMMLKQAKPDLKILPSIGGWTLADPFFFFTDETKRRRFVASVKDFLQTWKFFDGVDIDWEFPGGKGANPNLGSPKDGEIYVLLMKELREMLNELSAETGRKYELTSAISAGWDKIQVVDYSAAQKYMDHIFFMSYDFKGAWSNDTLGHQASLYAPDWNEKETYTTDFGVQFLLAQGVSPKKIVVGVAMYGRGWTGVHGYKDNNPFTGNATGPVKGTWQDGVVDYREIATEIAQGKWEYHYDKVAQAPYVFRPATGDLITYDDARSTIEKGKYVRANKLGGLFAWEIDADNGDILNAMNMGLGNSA

CC(=O)N[C@H]1[C@H](Oc2ccc3c(C)cc(=O)oc3c2)O[C@H](CO)[C@@H](O)[C@@H]1O [MU-GlcNAc]
fluorescence of released 4-methylumbelliferone [1]: the substrate for OfHex1 was MU-GlcNAc

NC(=O)CC[C@H](N)C(=O)N[C@@H](Cc1c[nH]c2ccccc12)C(=O)N[C@@H](Cc1c[nH]c2ccccc12)C(=O)O [QWW] (H-Gln-Trp-Trp-OH)
inhibition at 1000 µM [2]: 55.3%

N[C@@H](Cc1ccccc1)C(=O)N1CCC[C@H]1C(=O)N[C@@H](Cc1ccc(O)cc1)C(=O)O [FPY] (H-Phe-Pro-Tyr-OH)
inhibition at 1000 µM [2]: < 50% | inhibition at 1000 µM [3]: < 50%

N[C@@H](Cc1ccc(O)cc1)C(=O)N[C@@H](Cc1ccccc1)C(=O)N1CCC[C@H]1C(=O)O [YFP] (H-Tyr-Phe-Pro-OH)
inhibition at 1000 µM [2]: < 50% | inhibition at 1000 µM [4]: 14.8% | inhibition at 1000 µM [3]: < 50%
